The source of these data is PMC9351465, “Mechanism-based heparanase inhibitors reduce cancer metastasis in vivo” (Proceedings of the National Academy of Sciences of the …, 2022).

One test has as its system B16 melanoma cells. Put plainly: B16 murine melanoma experimental lung metastasis model. Conditions: C57BL/J6 mice, i.p. 300 nmol 2 or 150 μg SST0001, then i.v. B16 cells with 2 nmol 2 or 10 μg SST0001; after 14 d; vs PBS. The format is in vivo, mouse. The protocol:
We initially tested a B16 murine melanoma metastasis model, measuring the formation of metastatic lung tumors by B16 melanoma cells after intravenous (i.v.) injection. The efficacy of covalent HPSE inhibition by 2 was compared to SST0001 (Roneparstat), a current best-in-class HPSE inhibitor and clinical trial candidate (SI Appendix, Fig. S1). Mice were inoculated intraperitoneally (i.p.) with 300 nmol of 2 (∼15 μmol/kg for a 20 g mouse), or 150 μg SST0001, followed by an i.v. injection of B16 cells alongside 2 nmol 2 or 10 μg SST0001.
For HS-degradation assays, ECM coated dishes were incubated with 200 ng recombinant HPSE in 1 mL reaction mixture (10 mM buffer Phosphate-Citrate pH 6.0, 50 mM NaCl, 1 mM DTT, 1 mM CaCl2) containing HPSE inhibitors or DMSO control. […] The Sepharose 6B column was eluted with PBS, and 35S radioactivity of 0.2 mL fractions quantitated using a liquid scintillation analyzer (Packard BioScience) (11). […]
(§1) Cells in the upper chamber were separated by Matrigel from a lower chamber containing 600 µL DMEM, supplemented with 10% FBS. […] 10 randomly selected microscopic fields were recorded, and cell invasion calculated using ImageJ, by quantitating the percentage of the field stained by crystal violet. […]
Mice were sacrificed after 14 days and the lungs were dissected, photographed and evaluated for the number of metastatic foci/lung. […]

A further test has as its system U87 glioblastoma cells. Put plainly: Matrigel invasion assay. The conditions noted are these: 20 µM inhibitor, 4 h. The format is cell-based, human. The method, then:
Preliminary in cellulo evaluations of our inhibitors’ effects on cancer aggression were conducted using a Matrigel invasion assay, which measures the ability of cells to migrate through transwell inserts coated with the ECM material Matrigel. Matrigel invasion by cells requires a broad complement of proteases and glycosidases, thereby mimicking some aspects of metastasis in vivo ([51]).
For HS-degradation assays, ECM coated dishes were incubated with 200 ng recombinant HPSE in 1 mL reaction mixture (10 mM buffer Phosphate-Citrate pH 6.0, 50 mM NaCl, 1 mM DTT, 1 mM CaCl2) containing HPSE inhibitors or DMSO control. Plates were incubated at 37°C for 5 h, then assay medium collected and applied to a 0.9×30 cm Sepharose 6B size exclusion column. The Sepharose 6B column was eluted with PBS, and 35S radioactivity of 0.2 mL fractions quantitated using a liquid scintillation analyzer (Packard BioScience) (11). […]
as §1

In the next test the target is T1, HPSE (Homo sapiens, UniProt Q9Y251).
T1 sequence (Q9Y251 158-543 limits assumed): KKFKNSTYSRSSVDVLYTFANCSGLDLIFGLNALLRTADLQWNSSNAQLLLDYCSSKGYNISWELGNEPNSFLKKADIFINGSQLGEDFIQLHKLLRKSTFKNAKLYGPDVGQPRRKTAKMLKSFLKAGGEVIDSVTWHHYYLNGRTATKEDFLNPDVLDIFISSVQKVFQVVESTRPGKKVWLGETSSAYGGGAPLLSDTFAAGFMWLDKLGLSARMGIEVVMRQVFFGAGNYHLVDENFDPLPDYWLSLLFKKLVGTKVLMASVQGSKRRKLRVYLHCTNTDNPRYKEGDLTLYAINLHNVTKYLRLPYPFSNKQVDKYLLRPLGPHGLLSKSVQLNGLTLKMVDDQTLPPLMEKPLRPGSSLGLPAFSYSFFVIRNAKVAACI
T1 sequence (Q9Y251 36-109 limits assumed): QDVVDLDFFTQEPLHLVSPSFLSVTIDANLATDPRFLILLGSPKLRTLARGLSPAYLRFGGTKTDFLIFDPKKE
The experiment in a line: colorimetric fondaparinux cleavage assay. The format is biochemical. Conditions: 200 ng/mL HPSE, 100 µM fondaparinux, pH 5.0, 37°C, 18 h, n = 2; read-out: IC50, HPSE-mediated fondaparinux cleavage. The method, then: We next investigated the ability of our inhibitors to abrogate HPSE processing of its native oligosaccharide substrates, using a colorimetric assay that detects cleavage of the synthetic HS pentasaccharide fondaparinux ([49]). […]
Fondaparinux cleavage was performed essentially as previously described (9). Briefly, assays were carried out in 96 well plates (Nunc) pretreated with 4% BSA in TBS-T (20 mM Tris pH 7.4, […]
100 µL reactions were set up in 40 mM NaOAc pH 5.0 buffer, containing final concentrations of 200 ng/mL HPSE, 100 µM Fondaparinux (Arixtra) and specified concentrations of inhibitors.
Reactions were incubated at 37°C for 18 h, then quenched with 100 µL 0.1 M NaOH supplemented with 1.7 mM WST-1 tetrazolium salt, and incubated at 60°C for 1 h. Absorbance at 584 nm was read using an ELISA plate reader (BIO-TEK Instruments). All reactions were carried out in technical duplicate. Data were plotted and analyzed using Sigmaplot (Systat). […]

“And” between values parts separate entries of the source, which are not always exact repeats. Equal entries are not always repeated.

The IC50 is the concentration needed to halve the response being measured. With `CC(=O)N[C@H]1[C@@H](O[C@H]2[C@H](O)[C@@H](O)[C@@H]3O[C@@H]3[C@@H]2C(=O)O)O[C@H](CO)[C@@H](O)[C@@H]1O` [compound 2], the “lung metastases (metastatic foci/lung)” value with B16 melanoma cells is listed as “marked reduction in lung growths”. Further, in the test with U87 glioblastoma cells, the “Matrigel invasion (% field stained)” value was “significantly reduced Matrigel invasion”. Also, the IC50 on HPSE is 460 nM and ~460 nM.
